# Measurements as given in patent US11046714B2, “2,2-difluorodioxolo A2A receptor antagonists” (Merck Sharp & Dohme Corp., priority 2013, dated 2021).
# pKi: −log10 of the molar value.
# Molecular target: human A2A receptor (Homo sapiens (Human), UniProt P29274)
# Test: competition binding assay using Scintillation Proximity technology
# Conditions: membranes from CHO-K1 cells expressing the human A2a receptor; 2.0 nM tritiated compound; Cheng-Prusoff
# Procedure: The utility of the compounds in accordance with the present invention as A2A receptor antagonists may be readily determined without undue experimentation by methodologies well known in the art, including by a competition binding assay using Scintillation Proximity technology. Briefly, membranes from CHO-K1 cells expressing the human A2A receptor are incubated with a test compound at various concentrations, e.g., ranging from 3000 nM to 0.15 nM, in a reaction mixture also containing a tritiated form of 5-amino-7-[2-phenethyl]-2-(furan-2-yl)-7H-pyrazolo[4,3-e][1,2,4]triazolo[1,5-c]pyrimidine (the tritiated compound) and wheatgerm agglutin-coated yttrium silicate SPA beads at room temperature. The beads are then allowed to settle to the bottom of the wells, after which the membrane-associated radioactivity is determined by scintillation counting in a microplate reader. Ki values can be determined using the Cheng-Prusoff equation.
# Thus, 1.0 μg of membranes from CHO-K1 cells expressing the human A2a receptor were incubated with a compound of the invention at concentrations ranging from 3000 nM to 0.15 nM in a reaction mixture also containing 2.0 nM of a tritiated form of 5-amino-7-[2-phenethyl]-2-(furan-2-yl)-7H-pyrazolo[4,3-e][1,2,4]triazolo[1,5-c]pyrimidine (the tritiated compound) and 100 μg of wheatgerm agglutin-coated yttrium silicate SPA beads for one hour at room temperature with agitation. The beads were then allowed to settle to the bottom of the wells for 1 hr, after which the membrane-associated radioactivity was determined by scintillation counting in a TopCount microplate reader. Ki values were determined using the Cheng-Prusoff equation.
# Summary of Materials and Methods Used in A2a Activity Determination:
# • Membranes from CHO-K1 cells expressing the human Adenosine2A receptor (Perkin-Elmer #RBHA2AM400UA). • The tritiated compound was prepared according to published methods. • Wheatgerm agglutinin-coated yttrium silicate SPA beads (GE Healthcare #RPNQ0023). Dilute to 25 mg/ml in Assay Buffer. • Assay Buffer: Dulbecco's calcium and magnesium free phosphate buffered saline+10 mM MgCl2 • Adenosine deaminase (ADA) from calf intestine, 10 mg/2 ml (Roche #10 102 105 001). • DMSO • A2a antagonist standard (9-chloro-1-(2-furanyl)-[1,2,4]triazolo[1,5-c]quinazolin-5-amine from Tocris Bioscience) Compound Dilution • Make eight 1:3 serial dilutions in 100% DMSO from a 3 mM compound stock. • Transfer 50 nL of compound into a 384-well OptiPlate (Perkin Elmer). • Typically, final concentrations of compound used in the assay ranged from 3000 nM to 0.152 nM. Radioisotope • Dilute a solution of the tritiated compound to 5.0 nM in assay buffer. This is a 2.5× solution. The final concentration in the assay is 2.0 nM. Calculate the concentration by counting two 5 μL aliquots. Membrane Preparation • Use 1.0 μg of membrane/well. Dilute membranes to 33 μg/mL in assay buffer. Treat with 20 μg/mL ADA for 15 minutes at room temperature to degrade endogenous adenosine. Membrane-Bead Mixture • Use 100 μg/well wheatgerm agglutinin-coated yttrium silicate SPA beads. • Mix ADA-treated membranes and SPA beads together for 30 min prior to assay. Assay Assembly • To the Perkin-Elmer Optiplate-384 containing the compound titration add 20 μL of 2.5× solution of the tritiated compound and 30 μL of the membrane-bead mixture. Incubate for one hour at room temperature with agitation. • Include total binding (assay buffer+1% DMSO) and non-specific binding (CGS 15943, 1 μM) wells. Counting • Allow the beads to settle for one hour. • Count in TopCount. Calculations • A curve fitting program (i.e., Prism, Activity Base, Chemcart) is used to determine the EC50. The Ki value is calculated using the Cheng-Prusoff equation. Ki=EC50/(1+(radioligand concentration/Kd))
# human A2A receptor, sequence (P29274 whole entry): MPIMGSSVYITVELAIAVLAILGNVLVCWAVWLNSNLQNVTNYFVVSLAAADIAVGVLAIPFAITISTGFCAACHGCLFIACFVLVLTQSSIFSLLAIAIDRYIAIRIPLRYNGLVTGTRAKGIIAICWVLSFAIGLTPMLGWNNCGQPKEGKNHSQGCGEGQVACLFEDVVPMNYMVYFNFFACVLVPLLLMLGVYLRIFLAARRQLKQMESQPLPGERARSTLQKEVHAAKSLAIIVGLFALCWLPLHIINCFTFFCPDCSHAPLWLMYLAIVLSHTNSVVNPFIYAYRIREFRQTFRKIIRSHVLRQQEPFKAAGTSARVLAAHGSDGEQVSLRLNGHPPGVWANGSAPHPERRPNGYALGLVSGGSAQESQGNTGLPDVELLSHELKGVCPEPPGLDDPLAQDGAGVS
row,Compound,pKi
1,"CC1(F)CCCN(CCc2nc3c4ccc5c(c4nc(N)n3n2)OC(F)(F)O5)C1 (single isomer, unassigned) [Example 64, (R or S)-2,2-difluoro-8-[2-(3-fluoro-3-methylpiperidin-1-yl)ethyl][1,3] dioxolo[4,5-h][1,2,4]triazolo[1,5-c] quinazolin-5-amine]",8.11
2,"CC1(F)CCCN(CCc2nc3c4ccc5c(c4nc(N)n3n2)OC(F)(F)O5)C1 (single isomer, unassigned) [Example 65, (R or S)-2,2-difluoro-8-[2-(3-fluoro-3-methylpiperidin-1-yl)ethyl][1,3] dioxolo[4,5-h][1,2,4]triazolo[1,5-c] quinazolin-5-amine]",8.38
3,"Nc1nc2c3c(ccc2c2nc(CCN4CC5CC4C(F)(F)C5)nn12)OC(F)(F)O3 (single isomer, unassigned) [Example 66, (R or S)-8-[2-(6,6-difluoro-2-azabicyclo[2.2.1]hept-2-yl)ethyl]-2,2-difluoro[1,3]dioxolo[4,5-h][1,2,4] triazolo[1,5-c]quinazolin-5-amine]",8.52
4,"Nc1nc2c3c(ccc2c2nc(CCN4CC5CC4C(F)(F)C5)nn12)OC(F)(F)O3 (single isomer, unassigned) [Example 67, (R or S)-8-[2-(6,6-difluoro-2-azabicyclo[2.2.1]hept-2-yl)ethyl]-2,2-difluoro[1,3]dioxolo[4,5-h][1,2,4] triazolo[1,5-c]quinazolin-5-amine]",8.46
5,"CC1N(CCc2nc3c4ccc5c(c4nc(N)n3n2)OC(F)(F)O5)CCCC1(F)F (single isomer, unassigned) [Example 68, (R or S)-8-[2-(3,3-difluoro-2-methylpiperidin-1-yl)ethyl]-2,2-difluoro[1,3]dioxolo[4,5-h][1,2,4] triazolo[1,5-c]quinazolin-5-amine]",8.92
6,"CC1N(CCc2nc3c4ccc5c(c4nc(N)n3n2)OC(F)(F)O5)CCCC1(F)F (single isomer, unassigned) [Example 69, (R or S)-8-[2-(3,3-difluoro-2-methylpiperidin-1-yl)ethyl]-2,2-difluoro[1,3]dioxolo[4,5-h][1,2,4] triazolo[1,5-c]quinazolin-5-amine]",8.74
7,"Nc1nc2c3c(ccc2c2nc(CCN4CCCC(O)(C(F)(F)F)C4)nn12)OC(F)(F)O3 (single isomer, unassigned) [Example 70, (R or S)-1-(2-(5-amino-2,2-difluoro-[1,3]dioxolo[4,5-h][1,2,4]triazolo[1,5-c]quinazolin-8-yl)ethyl)-3-(trifluoromethyl)piperidin-3-ol]",8.28
8,"Nc1nc2c3c(ccc2c2nc(CCN4CCCC(O)(C(F)(F)F)C4)nn12)OC(F)(F)O3 (single isomer, unassigned) [Example 71, (R or S)-1-(2-(5-amino-2,2-difluoro-[1,3]dioxolo[4,5-h][1,2,4]triazolo[1,5-c]quinazolin-8-yl)ethyl)-3-(trifluoromethyl)piperidin-3-ol]",8.41
9,"Nc1nc2c3c(ccc2c2nc(CCN4CCCC(F)(C(F)(F)F)C4)nn12)OC(F)(F)O3 (single isomer, unassigned) [Example 72, (R or S)-2,2-difluoro-8-(2-(3-fluoro-3-(trifluoromethyl)piperidin-1-yl)ethyl)-[1,3]dioxolo[4,5-h][1,2,4]triazolo[1,5-c]quinazolin-5-amine]",9.05
10,"Nc1nc2c3c(ccc2c2nc(CCN4CCCC(F)(C(F)(F)F)C4)nn12)OC(F)(F)O3 (single isomer, unassigned) [Example 73, (R or S)-2,2-difluoro-8-(2-(3-fluoro-3-(trifluoromethyl)piperidin-1-yl)ethyl)-[1,3]dioxolo[4,5-h][1,2,4]triazolo[1,5-c]quinazolin-5-amine]",9.05

# More lines, now with the values ahead:
row,pKi,Compound
1,7.92,"C[C@H](Cc1nc2c3ccc4c(c3nc(N)n2n1)OC(F)(F)O4)N1CCCC(C)(F)C1 (single isomer, unassigned) [Example 85, 2,2-difluoro-8-{(2R)-2-[(3R or 3S)-3-fluoro-3-methylpiperidin-1-yl]propyl}[1,3]dioxolo[4,5-h][1,2,4]triazolo[1,5-c]quinazolin-5-amine]"
2,7.80,"C[C@H](Cc1nc2c3ccc4c(c3nc(N)n2n1)OC(F)(F)O4)N1CCCC(C)(F)C1 (single isomer, unassigned) [Example 86, 2,2-difluoro-8-{(2R)-2-[(3R or 3S)-3-fluoro-3-methylpiperidin-1-yl]propyl}[1,3]dioxolo[4,5-h][1,2,4]triazolo[1,5-c]quinazolin-5-amine]"
3,8.21,"C[C@@H](Cc1nc2c3ccc4c(c3nc(N)n2n1)OC(F)(F)O4)N1CCCC(C)(F)C1 (single isomer, unassigned) [Example 89, 2,2-difluoro-8-{(2S)-2-[(3R or 3S)-3-fluoro-3-methylpiperidin-1-yl]propyl}[1,3] dioxolo[4,5-h] [1,2,4]triazolo[1,5-c]quinazolin-5-amine]"
4,7.92,"C[C@@H](Cc1nc2c3ccc4c(c3nc(N)n2n1)OC(F)(F)O4)N1CCCC(C)(F)C1 (single isomer, unassigned) [Example 90, 2,2-difluoro-8-{(2S)-2-[(3R or 3S)-3-fluoro-3-methylpiperidin-1-yl]propyl}[1,3] dioxolo[4,5-h] [1,2,4]triazolo[1,5-c]quinazolin-5-amine]"
5,8.92,"CC(Cc1nc2c3ccc4c(c3nc(N)n2n1)OC(F)(F)O4)N1Cc2cccnc2C1 (single isomer, unassigned) [Example 91, 8-[(2R or 2S)-2-(5,7-dihydro-6H-pyrrolo[3,4-b]pyridin-6-yl)propyl]-2,2-difluoro[1,3]dioxolo[4,5-h][1,2,4]triazolo[1,5-c]quinazolin-5-amine]"
6,8.40,"CC(Cc1nc2c3ccc4c(c3nc(N)n2n1)OC(F)(F)O4)N1Cc2cccnc2C1 (single isomer, unassigned) [Example 92, 8-[(2R or 2S)-2-(5,7-dihydro-6H-pyrrolo[3,4-b]pyridin-6-yl)propyl]-2,2-difluoro[1,3]dioxolo[4,5-h][1,2,4]triazolo[1,5-c]quinazolin-5-amine]"
7,8.32,"CC(Cc1nc2c3ccc4c(c3nc(N)n2n1)OC(F)(F)O4)N1CC(F)(F)C1 (single isomer, unassigned) [Example 93, (R or S)-8-[2-(3,3-difluoroazetidin-1-yl)propyl]-2,2-difluoro[1,3] dioxolo[4,5-h][1,2,4]triazolo[1,5-c] quinazolin-5-amine]"
8,8.39,"CC(Cc1nc2c3ccc4c(c3nc(N)n2n1)OC(F)(F)O4)N1CC(F)(F)C1 (single isomer, unassigned) [Example 94, (R or S)-8-[2-(3,3-difluoroazetidin-1-yl)propyl]-2,2-difluoro[1,3] dioxolo[4,5-h][1,2,4]triazolo[1,5-c] quinazolin-5-amine]"
9,8.37,"CC(Cc1nc2c3ccc4c(c3nc(N)n2n1)OC(F)(F)O4)N1CCCC(F)(F)C1 (single isomer, unassigned) [Example 95, (R or S)-8-[2-(3,3-difluoropiperidin-1-yl)propyl]-2,2-difluoro[1,3] dioxolo[4,5-h][1,2,4]triazolo[1,5-c] quinazolin-5-amine]"
10,8.39,"CC(Cc1nc2c3ccc4c(c3nc(N)n2n1)OC(F)(F)O4)N1CCCC(F)(F)C1 (single isomer, unassigned) [Example 96, (R or S)-8-[2-(3,3-difluoropiperidin-1-yl)propyl]-2,2-difluoro[1,3] dioxolo[4,5-h][1,2,4]triazolo[1,5-c] quinazolin-5-amine]"
